Laboratory results taken from paper PMC4403079, “Flavonoids from Salvia chloroleuca with α-Amylsae and α-Glucosidase Inhibitory Effect” (Iranian Journal of Pharmaceutical Research : IJPR, 2015).
Like-named read-outs stand apart in the source and are kept apart here.

What was measured:
[1] = biological target: T1, Porcine pancreas α-amylase type VI (Sus scrofa, UniProt P00690); assay: biochemical
T1 construct: purchased Sigma-Aldrich
T1 sequence (P00690 16-511): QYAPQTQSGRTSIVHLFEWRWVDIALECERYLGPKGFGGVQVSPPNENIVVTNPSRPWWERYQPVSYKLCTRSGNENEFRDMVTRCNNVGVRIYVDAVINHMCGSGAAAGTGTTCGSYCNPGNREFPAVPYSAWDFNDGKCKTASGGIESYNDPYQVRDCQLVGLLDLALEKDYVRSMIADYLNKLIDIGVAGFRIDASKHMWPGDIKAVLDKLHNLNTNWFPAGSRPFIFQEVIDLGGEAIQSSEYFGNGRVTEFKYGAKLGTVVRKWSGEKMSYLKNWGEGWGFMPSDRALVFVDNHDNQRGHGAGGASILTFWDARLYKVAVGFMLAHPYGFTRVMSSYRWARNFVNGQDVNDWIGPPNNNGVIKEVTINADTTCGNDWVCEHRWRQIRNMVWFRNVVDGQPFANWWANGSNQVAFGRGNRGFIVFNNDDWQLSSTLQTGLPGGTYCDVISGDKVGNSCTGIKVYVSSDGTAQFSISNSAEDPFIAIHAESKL
Procedure: (§1) Soluble starch, sodium dihydrogenphosphate (NaH2PO4), sodium potassium tartrate and sodium chloride were purchased from Merck. Analytical grade solvents for extraction and HPLC grade solvents for chromatography were from Scharlau (Barcelona, Spain). HPLC grade water was obtained by an EASY-pure II (Barnstead, Dubuque IA, USA) water purification system. Deuterated solvents were purchased from Armar Chemicals (Döttingen, Switzerland).
α-Amylase inhibition activity was assessed by a previously reported procedure with some modifications ([17]). […] Individual blanks were prepared to correct for the blank ground absorbance, where the enzyme was replaced with buffer as follows:
Corrected absorbance of test sample = Absorbance of sample –absorbance of blank
From the net absorbance obtained, the % (w/v) of maltose generated was calculated from the equation obtained from the maltose standard calibration curve (0–0.1%, w/v, maltose).
Control incubations, representing 100% enzyme activity, were conducted in the same manner replacing the plant extract with DMSO. The percentage of α-amylase inhibition was calculated by the following equations:
% reaction=mean of maltose in sample/mean of maltose in control×100
% α-amylase inhibition activity= 100 - % reaction
(§2) Statistical analyses were done using GraphPad Prism version 5.00 for Windows. Differences were evaluated by one-way analysis of variance (ANOVA) test completed by Tukey’s multicomparison test. Statistical signiﬁcance was declared at a p<0.05. All assays were performed at least in triplicate and the results were expressed as mean ± standard deviation (SD). IC50 values were determined by plotting a percent inhibition versus concentration curve for all assays.

[2] = biological target: T2, α-glucosidase type I from Baker's Yeast (Saccharomyces cerevisiae, UniProt P53341); assay: biochemical
T2 construct: purchased Sigma-Aldrich
T2 sequence (P53341 whole entry): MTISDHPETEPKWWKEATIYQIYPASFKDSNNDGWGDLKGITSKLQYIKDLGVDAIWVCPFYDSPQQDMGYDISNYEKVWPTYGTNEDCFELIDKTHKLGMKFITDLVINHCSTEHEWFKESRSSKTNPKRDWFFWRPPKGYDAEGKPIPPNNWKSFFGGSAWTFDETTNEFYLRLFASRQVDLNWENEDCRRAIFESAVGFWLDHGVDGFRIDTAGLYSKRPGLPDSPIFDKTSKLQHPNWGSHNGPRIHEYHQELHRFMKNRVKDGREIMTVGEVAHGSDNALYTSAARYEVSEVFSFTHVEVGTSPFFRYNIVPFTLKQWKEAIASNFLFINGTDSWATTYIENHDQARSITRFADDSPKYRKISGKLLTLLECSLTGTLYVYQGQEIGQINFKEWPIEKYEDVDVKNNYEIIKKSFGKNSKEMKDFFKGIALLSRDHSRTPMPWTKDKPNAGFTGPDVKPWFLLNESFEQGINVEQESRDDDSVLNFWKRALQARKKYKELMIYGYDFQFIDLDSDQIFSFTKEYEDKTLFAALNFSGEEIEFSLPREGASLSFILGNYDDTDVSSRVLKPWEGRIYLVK
Procedure: as §1
The α-glucosidase inhibition was measured according to an earlier reported bioassay method ([18]). […] The mixed solution was incubated in 96-well plates at 37 °C for 15 min. After preincubation, the enzymatic reaction was initiated by adding 20 µL of 5 mM p-nitrophenyl-α-D-glucopyranoside solution in 0.1 M phosphate buffer (pH 6.9), and the reaction mixture was incubated for another 15 min at 37 °C. […] The reaction system without plant extracts was used as control and the system without α-glucosidase was used as blank for correcting the background absorbance. The inhibitory rate of sample on α-glucosidase was calculated by the following formula:
% Inhibition=control absorbance-sample absorbance/control absorbance×100
as §2

[3] = isolated compounds, pH 6.8, 37 °C, 30 min, mean ± SD, read-out: α-amylase (IC50 µM)

IC50 [1] | IC50 ([2]; isolated compounds, pH 6.9, 37 °C, mean ± SD, read-out: α-glucosidase (IC50 µM)) | Structure (SMILES) | IC50 [1, 3] | IC50 [2]
 |  | O=c1cc(-c2ccc(O)c(O)c2)oc2cc(O[C@@H]3O[C@H](CO)[C@@H](O)[C@H](O)[C@H]3O)cc(O)c12 [Compound 1, luteolin 7-O-glucoside] | 81.7 ± 2.3 µM | 18.3 ± 1.7 µM
 |  | O=C(O)[C@H]1O[C@@H](Oc2cc(O)c3c(=O)cc(-c4ccc(O)c(O)c4)oc3c2)[C@H](O)[C@@H](O)[C@@H]1O [Compound 2, luteolin 7-O-glucuronide] | 61.5 ± 1.4 µM | 14.7 ± 2.1 µM
 |  | COc1ccc(-c2cc(=O)c3c(O)cc(O[C@@H]4O[C@H](C(=O)O)[C@@H](O)[C@H](O)[C@H]4O)cc3o2)cc1O [Compound 3, diosmetin 7-O-glucuronide] | 76.3 ± 0.6 µM | 17.1 ± 1.9 µM
> 100 µM | > 50 µM | COc1ccc(-c2cc(=O)c3c(O)c(OC)c(OC)cc3o2)cc1 [Compound 4, salvigenin] |  | 
